# Assay results reported in US20060275510A1, “Formulations for menopausal syndromes” (Hong Kong Jockey Club Institute of Chinese Medicine Limited, priority 2005, published 2006).
# Legend:
# Format in all cases: in vivo
# [1] = system: ovariectomized hamsters; experiment: Ferric Reducing Ability of Plasma (FRAP) in ovariectomized hamsters; details: Positive control
# From the text: The higher the anti-oxidation level, the more Fe^2+ ions are reduced from Fe^3+ ions. See Benzie I F and Szeto Y T (1999).
# 47 female hamsters, weighed about 100 g, bred at the Laboratory Animal Services Center (LASEC) of the Chinese University of Hong Kong, were randomly divided into 6 groups.
# Apparatus: • UV-visible spectrophometer: manufacturer Shimadzu, product code: UV-1601
# Method: 47 female hamsters weighed 100 g were divided into 6 groups, including three test groups 1, 2, and 3, the positive control group 4, the negative control group 5, and the sham operated group 6.
# The hamsters in groups 1-5 were ovariectomized. A month afterwards, the hamsters in groups 1-6 were administered intragastrically with the drugs and doses indicated above, once every day for consecutive 4 weeks. After 4 weeks of administration, blood samples were obtained from the orbital venous sinus, and were subjected to centrifugation at 10,000 rpm for 10 minutes to collect serum. 10 μl of serum was diluted with 490 μl double distilled water. 300 μl freshly prepared FRAP reagent was then added to initiate the reaction. The samples were placed under 593 nm to observe the changes of absorbance during the first 10 minutes of the reduction of Fe^3+ to Fe^2+. The increase in absorbance is an indicator of the level of reduction. The Ferric Reducing Ability of Plasma (FRAP) values were determined as follows: […]
# [2] = system: ovariectomized hamsters; experiment: Serum [non-HDL]/[HDL] ratio and kidney cholesterol in ovariectomized hamsters; details: Positive control, 17β Estradiol 21 day release 0.5 mg/pellet
# Method: Animals: hamsters, female, weighed 100 g, bred at the Laboratory Animal Services Center (LASEC) of the Chinese University of Hong Kong, randomly divided into 6 groups.
# Dose: 0.5 mg/pellet, catalogue no.: E121 • The sham operated group: hamsters received the operation but not ovariectomy. Method:
# 47 hamsters weighed 100 g were divided into 6 groups including the positive group, negative group, sham operated and 3 dosage groups (low, medium and high). All hamsters except those in the sham operated group received ovariectomy. A month after the ovariectomy operation, all hamsters were administered intragastrically with drugs and doses indicated above, once a day for consecutive 4 weeks. […] The non-HDL/HDL ratio in serum was analyzed according to See Ho K K W, Leung L K, Chan F L, Huang Y, Chen Z Y (2003).
# The hamsters received administration intragastrically for another 4 weeks prior to killing by nitrogen narcosis. The cholesterol level in kidney was measured by gas chromatography.
# 300 mg of the kidney and 1 mg of the internal standard (IS), stigniastanol (Sigma, S-4297) was homogenized using Polytron homogenizer in 15 ml chloroform-methanol (2:1, v/v) and 3 ml 0.9% saline. […] The TMS-ether derivative was analyzed in a fused silica capillary column (SAC™-5, 30 m×0.25 mm, i.d.; Supelco, Inc., Bellefonte, Pa., USA) in a Shimadzu GC 14B GLC equipped with a flame-ionization detector (Shimadzu). […]
# [3] = system: pentobarbital sodium-injected mice; experiment: Sleeping test (pentobarbital sodium-induced sleep); details: female KM mice; oral; Composition I 56 g (crude herb)/kg/d 14 days, Diazepam 0.5 mg/kg once on day 14; pentobarbital sodium 35 mg/kg i.p. 1 h after last dose
# Method: According to Xu S Y. (1991 ), Chen Q. (1996 ), Zhang J T. (1998 ), Zhu X D. and Tang X C. (1998 ), an agent is deemed to have sedative and hypnotic effects if it can prolong the duration of the sleep, as indicated by the disappearance of right reflex, of pentobarbital sodium-injected mice
# Drug, dose, and the administration formulation: • For negative control group: 0.9% saline. • For positive control group: Diazepam, purchased from BangNing Pharmaceutical Co. Ltd. The dose was 0.5 mg/kg weight/d. […] The dose was 56 g (crude herb)/kg weight/d. […] Method:
# Thirty normal female mice weighed between 18-20 g were randomized into 3 groups of 10: the negative control group, the positive control group, and the test group. For the negative control and testing group, the drugs were administered to the mice orally with the doses and formulations indicated, once per day for consecutive 14 days. For the positive control group, the drug was given on the day fourteen orally. One hour after the last administrations, all mice were injected with 35 mg/kg of pentobarbital sodium intraperitoneally. The duration of the disappearance of righting reflex was observed and recorded. According to Zhang J T. (1998 ), the duration of the disappearance of righting reflex equals to the sleeping time.
# [4] = system: KM mice; experiment: Open field test (spontaneous activity); details: female KM mice; oral; Composition I 14 g (crude herb)/kg/d 14 days, Diazepam 1.0 mg/kg once on day 14
# Method: KM mice, females, weighed between 18-20 g, purchased from Shanghai Experimental Animal Center, the Chinese Academy of Sciences.
# • Multi-functional Auto-Motion Recorder for Mouse/Rat: manufactured by Facility Station of Shandong Academy of Medical Science. Product code: YLS-1B.
# Drug, dose, and the administration formulation: • For negative control group: 0.9% saline. • For positive control group: Diazepam as described above. The dose was 1.0 mg/kg weight/d. […] The dose was 14 g (crude herb)/kg weight/d. […] Method:
# Thirty normal female mice weighed between 18-20 g were randomized into 3 groups of 10: negative control, positive control and the test group. For the negative control and testing group, the drugs were administered to the mice orally with the doses and formulations described above, once per day for consecutive 14 days. For the positive control group, the drug was given on the day fourteen orally. One hour after the last administration, the mice were individually placed into a box with infrared detection light to record their spontaneous activities in 3 minutes.
# [5] = system: normal female mice; experiment: Dark-light box test on normal mice; details: within 10 minutes, oral, Composition I 56 g (crude herb)/kg/d 14 days, Diazepam 1.0 mg/kg once on day 14, 1 h after last dose
# Method: In the experiment, mice were placed in Shimada light and dark box. The times of mice shuttling between the boxes and the duration of mice staying in the dark/light box were recorded.
# • Shimada light and dark box: size: 40 cm×40 cm×12 cm, having a light box (20 cm×20 cm×12 cm) at the center, and two dark boxes (10 cm×10 cm×12 cm) at two diagonal corners. Two L-shaped tracks are connected to two sides of each dark box. Manufacturer: Shanghai Institute of Pharmaceutical Industry. Animals:
# Thirty normal female mice weighed between 18-20 g were randomized into 3 groups of 10: negative control, positive control (Diazepam) and the test group. The mice in the negative and test groups were administered orally with respective drugs and doses as indicated above, once a day for consecutive 14 days. The mice in the positive control group received only one dose orally as indicated above on day fourteen. 1 hour after the last administration on day fourteen, all the mice were placed in the Shimada light and dark box.
# [6] = system: ovariectomized mice; experiment: Dark-light box test on ovariectomized mice; details: within 10 minutes, oral, Composition I 14 g (crude herb)/kg/d 14 days, Diazepam 1.0 mg/kg once on day 14, 1 h after last dose
# Method: The same experiment of Example 5 was conducted on ovariectomized mice. […] See Xu S Y. (1991), Chen Q. (1996), Zhang J T. (1998).
# Apparatus: Same as Example 5.
# Animals: Same as Example 5.
# Negative control group: 0.9% saline,
# Positive control group: Diazepam, 1.0 mg/kg weight
# Thirty female mice were anaesthetized by intraperitoneal injection with 35 mg/kg Pentobarbital Sodium. Two cuts were made on the back of the rats, each cut being 1.5 cm from the spine. The two ovaries were taken from the two cuts, respectively. The cuts were then sealed. 1 week after the ovariectomization, the 30 mice were randomly divided into 3 groups, and the same administration procedures as Example 5 were followed, using drugs and doses specified above. 1 hour after the last administration on day fourteen, all the mice were placed in the Shimada light and dark box.
# [7] = system: ovariectomized rats; experiment: Elevated plus-maze test on ovariectomized rats; details: oral, Composition I 14 g (crude herb)/kg/d 14 days, Diazepam 0.5 mg/kg once on day 14, 1 h after last dose
# Method: SD rats, female, weighed 230-250 g, purchased from Shanghai Experimental Animal Center, the Chinese Academy of Sciences.
# • For negative control group: 0.9% saline. • For positive control group: Diazepam as described above. The dose was 0.5 mg/kg weight. • For test group: Composition as prepared in Experiment 1. The dose was 14 g (crude herb)/kg weight/d. Method:
# Thirty female rats were divided into the above-mentioned 3 groups randomly and were anaesthetized by intraperitoneal injection with 60 mg/kg Pentobarbital Sodium. Two cuts were made on the back of the rats, each cut being 1.5 cm from the spine. The two ovaries were taken from the two cuts, respectively. The cuts were then sealed. The drug administration began 1 week after the ovariectomization. […] The rats in the positive control group received Diazepam orally only once on day fourteen. 1 hour after the last administration, the rats were placed in a maze.
# [8] = system: ovariectomized rats; experiment: Serum estrogen and progesterone levels (RIA), uterus weight and visceral index in ovariectomized rats; details: ovariectomized SD rats, 28 days once daily, n = 6
# Method: Female hormone stimulates estrogen in overiectomized female mice/rats.
# SD rats, female, weighted between 220-250 g before administration, purchased from Shanghai Sino-British Sippr/BK LAB Animal Ltd., randomly split into 5 groups.
# • Negative control group: 0.9% saline • Positive control group: • 1. Estradiol Benzoate, purchased from Shanghai No. 9 Pharmaceutical Ltd. Dose: 0.01 mg/kg weight/day • 2. ZuoGuiWan, purchased from Shanghai Leiyunshang Fengbang Pharmaceutical Co., Ltd. • 3. GengNianAn, purchased from Zhongxin Pharmacy Tianjin Leren Tang Pharmaceutical Factory. […] Dose: 1.0 ml/100 g weight/day • Positive control group: • 1. Estradiol Benzoate, Dose: […] dissolved in peanut oil (0.01 mg/ml). • 2. ZuoGuiWan, Dose: 7 g/kg weight/day dissolved in 0.5% CMC—Na, • 3. GengNianAn, Dose: 6 g/kg weight/day dissolved in 0.5% CMC—Na, • 5.
# Thirty ovariectomized female SD rats weighed between 220.0-250.0 g were randomized into 5 groups: the negative control group, the positive control group, comprising 1. Estradiol Benzoate group, 2. ZuoGuiWan group, 3. GengNianAn group, and the test group. The rats in the negative control, ZuoGuiWan, GengNianAn and the test groups received respective drug and dose as indicated intragastrically. The rats in Estradiol Benzoate were injected with estradiol at the above-indicated dose. All rats received administration once everyday for consecutive 28 days. During the 28 days, a daily pap smear was performed before drug administration. Twenty-four hours after the last administration, all of the rats were weighed, anesthetized, blood withdrawn and killed. The uterus was then removed and half of the uterus was weight in wet. The other half of the uterus was dried for 8 hours in an oven for the measurement of dried weight. The serum estrogen and progesterone levels were determined using radioimmunoassay (RIA) method.
# [9] = system: KM mice; experiment: Step-down test on normal mice (scopolamine); details: n = 10 mice, oral 14 days: Composition I 14 g (crude herb)/kg/d, Huperzine A 1.5 ug/kg/d
# From the text: A step-down recorder, comprising a platform and a copper floor, is provided. The mice were placed on the copper floor. When the cooper floor is electrified, the normal reaction of the mice is to jump up to the platform to avoid the electric shock. After a period of time, the mice may forget about the shock and jump back to the floor. This jumping back to the floor is an “error reaction”. The mice that jump back to the floor received electric shock again and would jump back to the platform again. The duration between the first jump up (to the platform) and back (to the floor) is called the “latency period”. The number of jumping backs (error reactions) in a certain period of time could serve as an indicator of the memory of the mice.
# Based on the Principle, agents that are able to reduce the error reactions of mice in a certain period of time and […] the latent period are deemed effective in memory improvement. Xu S Y. (1991), Chen Q. (1996), Zhang J T. (1998),Yang J, Wang J, et al. (2000).
# Code: YLS-2 T, purchased from Facility station of Shandong Academy of Medical Science Method:
# Thirty normal female mice were randomized into 3 groups of 10: negative control, positive control (Huperzine A) and the test group. Mice in the three groups received respective drugs and doses orally as indicated above, once per day for consecutive 14 days. An hour after the last administration, all the mice were administrated with 2 mg/kg scopolamine intraperitoneally. 30 minutes later, the mice were placed in the step down recorder for 5 minutes for pre-adaptation. After the pre-adaptation, the copper floor was electrified for 5 minutes. The number of electric shocks each mouse received in the 5 minutes was recorded. After 24 hours, the test was conducted again.
# The number of shocked mice, the latency period of each mouse, and the average number of error reactions in 3 minutes were recorded.
# [10] = system: KM mice; experiment: Step through test on normal mice (ethanol-induced memory impairment); details: oral 14 days: Composition I 14 g (crude herb)/kg/day, Huperzine A 1.5 ug/kg/day
# From the text: A Step Through Test Box for Mouse with a light room and a dark room inside is provided. The mice are placed in the light room with their back facing the door. When the mice come out from the light room and enter the dark room, they get shocked, such behavior is called an error reaction. The first duration before an error reaction occurs after a mouse is placed in the box is called the latency period. Mice bearing better memories have longer latency period and commit less error reactions in a certain period of time.
# Agents that are able to increase the latency period and reduce error reactions of mice in the Step Through Test Box are deemed effective in improving the memory of animals. Reference: Xu S Y (1991), Chen Q (1996), Zhang J T. (1998), Yang J, Want J. et al (2000), and Zhu X D and Tang X C.
# Animals: KM mice, female, 18-20 g, purchased from Shanghai Experimental Animal Center of the Chinese Academy of Sciences.
# Thirty normal female mice weighed between 18-20 g were randomized into 3 groups of 10: negative control, positive control (Huperzine A) and the test group. The mice were administered orally with the above-indicated doses and drugs, once a day for 14 days. An hour after the last administration (day 14), all the mice were orally given 45% ethanol (0.1 ml/10 g). 30 minutes later, the mice were placed in the light room of the test box with their back facing the door. When the mice entered the dark room and got shocked, the latency period was recorded (the 1st latency period). The test was conducted again 24 hours later, wherein the number of mice entering the dark room (error reaction) and the latency period (the 2nd latency period) were recorded.
# [11] = Composition I 7 g (crude herb)/kg/day i.g., ZuoGuiWan 7 g/kg/day, GengNianAn 6 g/kg/day, Estradiol Benzoate 0.01 mg/kg/day injected
# [12] = 5 minutes pre-adaptation (first test), scopolamine 2 mg/kg i.p.
# [13] = 24 hours after scopolamine administration
# [14] = The second test (24 h later), 45% ethanol
smiles,measurement,setting,value
C[C@]12CC[C@@H]3c4ccc(O)cc4CC[C@H]3[C@@H]1CC[C@@H]2O [17β Estradiol],Percentage of FRAP value remained after 4 weeks of treatment,[1],88.32 ± 21.06 (p = 0.17) %
same,Kidney cholesterol,[2],3.5 ± 0.4 mg/g
CN1C(=O)CN=C(c2ccccc2)c2cc(Cl)ccc21 [Diazepam],Sleeping Time,[3],2927.8 ± 1061.2 s
same,"Locomotion times during the 3 minutes, 1 hour after drug",[4],61.0 ± 11.6
same,"Locomotion times during the 3 minutes, 3 hour after drug",[4],46.2 ± 11.3
same,Shuttle Time,[5],76.1 ± 8.90
same,Time spent in dark box,[5],166.6 ± 45.05
same,Shuttle Time,[6],20.5 ± 10.7 (p = 0.874)
same,Time spent in dark box,[6],47.4 ± 31.9
same,Time spent in open arm × 100% / Time spent in both arms,[7],6 ± 7%
same,Times of entering open arm × 100% / Times of entering both arms,[7],12 ± 11%
C[C@]12CC[C@@H]3c4ccc(OC(=O)c5ccccc5)cc4CC[C@H]3[C@@H]1CC[C@@H]2O [Estradiol Benzoate],Serum Estrogen,[8]; [11],33.00 ± 21.76 ng/mL
same,Serum Progesterone,[8]; [11],25.85 ± 6.15 ng/mL
same,Visceral Index,[8]; doses as for serum levels,0.246 ± 0.030 g/100 g BW
same,Wet weight of uterus,[8]; doses as for serum levels,0.597 ± 0.064 g
C/C=C1\[C@H]2C=C(C)C[C@]1(N)c1ccc(=O)[nH]c1C2 [Huperzine A],Number of shocks per mouse,[9]; [12],5.7 ± 2.7
same,Total number of shocks,[9]; [12],51
same,First step down latency period,[9]; [13],200.6 ± 137.2 s
same,Number of error reactions in 3 minutes,[9]; [13],8
same,Number of shocked mice,[9]; [13],5
same,The 1st latency period,"[10]; The first test, 45% ethanol 0.1 ml/10 g orally",19.3 ± 16.16
same,No. of error reactions,[10]; [14],1.4 ± 2.0
same,The 2nd latency period,[10]; [14],196.2 ± 121.9
